The text below walks through data of the Kinase Knowledgebase extract (Sharma et al. 2016).

The target of this experiment is CDK2 (human) (UniProt P24941). Description: Enzyme Assay.

For `O=C(Nc1c[nH]nc1-c1nc2cc(CN3CCOCC3)ccc2[nH]1)NN1CCOCC1`, the half-inhibitory concentration (IC50) is less than 1 µM.

On to `COc1cc2nc(-c3n[nH]cc3NC(=O)c3ccoc3CN(C)C)[nH]c2cc1OC`, for which the 50% inhibitory concentration (IC50) was less than 1 µM.

`O=C(CC1CC1)Nc1c[nH]nc1-c1nc2cc(CN3CCOCC3)ccc2[nH]1` yielded an IC50 of less than 1 µM.

With `COc1cc2nc(-c3n[nH]cc3NC(=O)c3cc(Cl)cc(N4CCN(C)CC4)c3)[nH]c2cc1OC`, the IC50 is less than 1 µM.

The compound `COc1ccc(Cl)cc1C(=O)Nc1c[nH]nc1-c1nc2cc(CN3CCN(C)CC3)ccc2[nH]1` showed a half-inhibitory concentration (IC50) of less than 1 µM.

The compound `O=C(Nc1c[nH]nc1-c1nc2cc(CN3CCOCC3)ccc2[nH]1)Nc1c(F)cc(F)cc1F` showed a half-inhibitory concentration (IC50) of less than 1 µM.

As for `O=C(Nc1cc(F)ccc1F)Nc1c[nH]nc1-c1nc2cc(CN3CCOCC3)ccc2[nH]1`, the IC50 is less than 1 µM.

As for `O=C(Nc1ccc(F)cc1F)Nc1c[nH]nc1-c1nc2cc(CN3CCOCC3)ccc2[nH]1`, the half-maximal inhibitory concentration (IC50) was less than 1 µM.

`COc1ccc(C#N)cc1C(=O)Nc1c[nH]nc1-c1nc2cc(CN3CCOCC3)ccc2[nH]1`: the IC50 was less than 1 µM.

`CN(C)NC(=O)Nc1c[nH]nc1-c1nc2cc(CN3CCOCC3)ccc2[nH]1` displayed an IC50 of less than 1 µM.

`O=C(Nc1c[nH]nc1-c1nc2cc(CN3CCOCC3)ccc2[nH]1)NN1CCCC1` gave an IC50 of less than 1 µM.

Regarding `O=C(Nc1c[nH]nc1-c1nc2cc(CN3CCOCC3)ccc2[nH]1)C1CCCO1` (configuration not stated), the IC50 was less than 1 µM.

The IC50 is the concentration that gives 50% inhibition.
